Values quoted from earlier work as cited in EP0454783B1, “SITE SPECIFIC IN-VIVO ACTIVATION OF THERAPEUTIC DRUGS” (Akzo Nobel N.V., priority 1989, dated 1990).

Target: lysozyme (Gallus gallus, UniProt P00698)
Conditions: Imoto et al, 1972

Sequence of lysozyme (P00698 19-147): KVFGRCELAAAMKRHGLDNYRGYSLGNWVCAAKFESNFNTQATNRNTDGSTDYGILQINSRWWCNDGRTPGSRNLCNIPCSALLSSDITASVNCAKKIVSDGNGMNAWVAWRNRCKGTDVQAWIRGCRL

Question: For CC(=O)N[C@H]1[C@H](O[C@H]2[C@H](O)[C@@H](NC(C)=O)[C@H](O[C@H]3[C@H](O)[C@@H](NC(C)=O)C(O)O[C@@H]3CO)O[C@@H]2CO)O[C@H](CO)[C@@H](O[C@@H]2O[C@H](CO)[C@@H](O[C@@H]3O[C@H](CO)[C@@H](O[C@@H]4O[C@H](CO)[C@@H](O)[C@H](O)[C@H]4NC(C)=O)[C@H](O)[C@H]3NC(C)=O)[C@H](O)[C@H]2NC(C)=O)[C@@H]1O (stereo partly shown) [chitohexaose], which “fold higher rate of cleavage by lysozyme than chitotriose” value is on record?
Answer: 30,000 fold
